Results reported in US9271978B2 (Zenith Epigenetics Corp., priority 2012, dated 2016).

Columns and labels:
Parameters in all cases: key: Active: Compounds with an IC50 value less than 30 μM were deemed to be active.; Not Active: Compounds with an IC50 value less than 30 μM were deemed to be active
hIL-6 mRNA = experiment: Inhibition of hIL-6 mRNA transcription in U937 cells; assay type: cell-based, human; conditions: LPS stimulation, active = IC50 <30 μM
How it was run: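 U937 cells differentiated 3 days with 60 ng/mL PMA, pretreated 1 h with compound, then stimulated with 1 ug/mL E. coli LPS for 3 h at 37° C. hIL-6 mRNA quantified by one-step qRT-PCR, Ct normalized to internal control, expressed as fold induction relative to control.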

[1] = target: T1, Brd4 bromodomain 1 (BRD4(1)) (Homo sapiens, UniProt O60885); experiment: Inhibition of tetra-acetylated histone H4 binding to Brd4 bromodomain 1 (TR-FRET); conditions: tetra-acetylated histone H4 peptide, active = IC50 <30 μM
T1 construct: Illustrative results with the first bromodomain of Brd4; made in house; host or cells: E. coli BL21 (DE3)
How it was run: (§1)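 N-terminally His-tagged bromodomains (200 nM), expressed in E. coli, were incubated with biotinylated tetra-acetylated histone H4 peptide (25-50 nM), Eu-cryptate streptavidin and XL665 anti-His antibody in HEPES pH 7.4 buffer with KF, 0.2% DMSO, 2 h at room temperature. Inhibition read as decreased 665/620 nm TR-FRET; IC50 from dose-response curves.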

c-myc = experiment: Inhibition of c-myc expression in MV4-11 cells (mRNA, real-time PCR); assay type: cell-based; conditions: Human AML MV4-11 cells, 3 h incubation
Description: MV4-11 cells (2.5×10^4 cells) were plated in 96 well U-bottom plates with test compound or DMSO (0.1%), and incubated for 3 h at 37° C. Cells were then harvested by centrifugation, lysed, and mRNA was isolated using the mRNA catcher plus kit (Invitrogen). Reverse transcription of the mRNA and duplex amplification of the c-myc and cyclophilin cDNAs was performed using the RNA Ultrasense kit (Invitrogen) and a ViiA7 real-time PCR machine (Applied Biosystems). IC50 values were determined from a dose response curve.

[2] = system: human AML MV-4-11 (CRL-9591) cells; experiment: Inhibition of cell proliferation in MV4-11 cells; assay type: cell-based; conditions: human AML MV-4-11 cells, 72 h; active = IC50 <30 μM
How it was run: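 Exponentially growing MV-4-11 cells (5×10^4/well) were treated immediately with two-fold dilutions of compound from 30 μM to 0.2 μM, in triplicate, for 72 h at 37° C, 5% CO2. Viability was measured by MTS absorbance at 490 nm after 3–4 h. Proliferation relative to DMSO after blank correction gave IC50.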

[3] = target: T2, second bromodomain of Brd2 (BRD2(2)) (Homo sapiens, UniProt P25440); experiment: Inhibition of tetra-acetylated histone H4 binding to Brd2 bromodomain 2 (TR-FRET); conditions: tetra-acetylated histone H4 peptide, active = IC50 <30 μM
T2 construct: made in house; host or cells: E. coli BL21 (DE3)
How it was run: as §1

T2 sequence (P25440 344-453 limits assumed): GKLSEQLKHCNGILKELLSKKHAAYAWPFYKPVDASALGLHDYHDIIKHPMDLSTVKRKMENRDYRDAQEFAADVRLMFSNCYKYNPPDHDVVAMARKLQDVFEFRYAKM

IL-6 activity (IC50 <30 μM) (hIL-6 mRNA)	FRET activity (IC50 <30 μM) BRD4(1) [1]	c-myc activity (IC50 <30 μM) (c-myc)	Cell Proliferation activity (IC50 <30 μM) [2]	FRET activity (IC50 <30 μM) BRD2(2) [3]	Structure (SMILES)
Active	Active	Active	Active	Active	Cc1noc(C)c1-c1ccc(=O)n(Cc2ccccc2C(F)(F)F)c1 [Example 123, 5-(3,5-Dimethylisoxazol-4-yl)-1-(2-(trifluoromethyl)benzyl)pyridin-2(1H)-one]
Active	Active	Active	Active	Active	Cc1cccc(Cn2cc(-c3c(C)noc3C)ccc2=O)c1 [Example 122, 5-(3,5-Dimethylisoxazol-4-yl)-1-(3-methylbenzyl)pyridin-2(1H)-one]
Active	Active	Active	Active	Active	Cc1noc(C)c1-c1ccc(=O)n(C(C)c2ccccc2F)c1 (stereo not shown) [Example 124, 5-(3,5-Dimethylisoxazol-4-yl)-1-(1-(2-fluorophenyl)ethyl)pyridin-2(1H)-one]
Active	Active	Not Active	Active	Active	Cc1onc(N)c1-c1ccc(=O)n(Cc2ccccc2)c1 [Example 151, 5-(3-Amino-5-methylisoxazol-4-yl)-1-benzylpyridin-2(1H)-one]
Active	Active	Active	Active	Active	Cc1noc(C)c1-c1ccc(=O)n(Cc2cc(F)c(F)c(F)c2)c1 [Example 142, 5-(3,5-Dimethylisoxazol-4-yl)-1-(3,4,5-trifluorobenzyl)pyridin-2(1H)-one]
Active	Active	Not Active	Active	Active	Cc1noc(C)c1-c1ccc(=O)n(Cc2ccsc2)n1 [Example 107, 6-(3,5-Dimethylisoxazol-4-yl)-2-(thiophen-3-ylmethyl)pyridazin-3(2H)-one]
Not Active	Active	Not Active	Active	Active	COc1ccc(-c2nn(Cc3ccccc3)c(=O)c3ccccc23)c(O)c1OC [Example 164, 2-Benzyl-4-(2-hydroxy-3,4-dimethoxyphenyl)phthalazin-1(2H)-one]
Not Active	Active	Not Active	Active	Active	COc1cc(-c2ccc(=O)n(Cc3ccc(C(C)(C)C)cc3)n2)cc(OC)c1OC [Example 120, 2-(4-(tert-Butyl)benzyl)-6-(3,4,5-trimethoxyphenyl)pyridazin-3(2H)-one]
Active	Active	Active	Active	Active	Cc1noc(C)c1-c1ccc(=O)n(Cc2ccc(Cl)cc2Cl)c1 [Example 136, 1-(2,4-Dichlorobenzyl)-5-(3,5-dimethylisoxazol-4-yl)pyridin-2(1H)-one]

The remaining lines, values behind:

Structure (SMILES)	IL-6 activity (IC50 <30 μM) (hIL-6 mRNA)	FRET activity (IC50 <30 μM) BRD4(1) [1]	c-myc activity (IC50 <30 μM) (c-myc)	Cell Proliferation activity (IC50 <30 μM) [2]	FRET activity (IC50 <30 μM) BRD2(2) [3]
Cc1noc(C)c1-c1ccc(=O)n(Cc2ccccc2F)n1 [Example 93, 6-(3,5-Dimethylisoxazol-4-yl)-2-(2-fluorobenzyl)pyridazin-3(2H)-one]	Not Active	Active	Not Active	Active	Active
Cc1noc(C)c1-c1ccc(=O)n(Cc2ccccc2C#N)n1 [Example 24, 2-((3-(3,5-Dimethylisoxazol-4-yl)-6-oxopyridazin-1(6H)-yl)methyl)benzonitrile]	Not Active	Active	Not Active	Active	Active
Cc1ccc(Cn2nc(-c3c(C)noc3C)ccc2=O)cc1 [Example 29, 6-(3,5-Dimethylisoxazol-4-yl)-2-(4-methylbenzyl)pyridazin-3(2H)-one]	Active	Active	Active	Active	Active
Cc1noc(C)c1-c1ccc(=O)n(Cc2c(F)cccc2Cl)n1 [Example 96, 2-(2-Chloro-6-fluorobenzyl)-6-(3,5-dimethylisoxazol-4-yl)pyridazin-3(2H)-one]	Active	Active	Active	Active	Active
Cc1noc(C)c1-c1ccc(=O)n(Cc2ccc(Cl)cc2)n1 [Example 25, 2-(4-Chlorobenzyl)-6-(3,5-dimethylisoxazol-4-yl)pyridazin-3(2H)-one]	Active	Active	Active	Active	Active
Cc1noc(C)c1-c1ccc(=O)n(C(C)c2ccccc2C(F)(F)F)n1 (stereo not shown) [Example 34, 6-(3,5-Dimethylisoxazol-4-yl)-2-(1-(2-(trifluoromethyl)phenyl)ethyl)pyridazin-3(2H)-one]	Active	Active	Active	Active	Active
Cc1noc(C)c1-c1ccc(=O)n(Cc2ccccc2C(F)(F)F)n1 [Example 94, 6-(3,5-Dimethylisoxazol-4-yl)-2-(2-(trifluoromethyl)benzyl)pyridazin-3(2H)-one]	Not Active	Active	Not Active	Active	Active
Cc1ccccc1Cn1nc(-c2c(C)noc2C)ccc1=O [Example 28]	Active	Active	Active	Active	Active
Cc1noc(C)c1-c1cc(Cl)c(=O)n(Cc2ccccc2)c1 [Example 64, 1-Benzyl-3-chloro-5-(3,5-dimethylisoxazol-4-yl)pyridin-2(1H)-one]	Active	Active	Active	Active	Active
Cc1noc(N)c1-c1ccc(=O)n(Cc2ccccc2)c1 [Example 98, 5-(5-Amino-3-methylisoxazol-4-yl)-1-benzylpyridin-2(1H)-one trifluoroacetic acid]	Active	Active	Not Active	Active	Active
Cc1noc(C)c1-c1cc(-c2ccc(F)cc2)c(=O)n(Cc2ccccc2)c1 [Example 70, 1-Benzyl-5-(3,5-dimethylisoxazol-4-yl)-3-(4-fluorophenyl)pyridin-2(1H)-one]	Active	Active	Active	Active	Active
